Reference: patent US20040259912A1, “Benzine derivatives, process for preparing the same and use thereof” (priority 2001, published 2004)

Tests used:
[1] = tested on: RVR1/CHO and HVR1/CHO strains (CHO-K1 cells expressing rat VR1 / human VR1); settings: in the presence of 1 μM of the compound; 3 hours reaction, then 20 hours culture with Alama Blue; strain (RVR1/CHO or HVR1/CHO) not specified
Protocol: RVR1/CHO and HVR1/CHO strains were inoculated on 96-well microplates (Corning Coaster) at a concentration of 4×10^4 cells/well, respectively and were cultured for 20 hours. After the culture was removed by suction, 180 μl of Ham's F12 medium (GIBCO BRL) containing 10% fetal calf serum (GIBCO BRL) was added to each well. Next, 20 μl of the assay buffer (Ham's F12 medium (GIBCO BRL), 0.5% BSA and 20 mM HEPES (Dojindo Molecular Technologies, Inc.), pH 7.5) containing a test compound at a final concentration of 1 μM was added to each well and the reaction was carried out in a carbon dioxide incubator for 3 hours. Subsequently, and Alama Blue (Wako Pure Chemical Industries, Ltd.) at a concentration of 25 μl was added to each well, and again cultured for 20 hours. Next, fluorescence was measured at excitation wavelength of 530 nm and fluorescence wavelength of 590 nm using multilabel counter (Wallac-Berthold, Japan), and survival rate of cell was determined.
According to the above-mentioned method, the agonist activity of test compounds was determined.

ICR male mice [2] = settings: 0.01 mL dropped to the eye; capsaicin (0.3 μg) challenge at 1 hour; stimulating or desensitizing activity not specified
Protocol: Eight of 4-5 weeks old ICR male mice (Japan SLC) were used in a group. 0.01 mL of the drug was added dropwise to the eye, and the time when the mouse continued to close the eye was measured. The stimulation of the drug was evaluated as positive when the time is more than 10 seconds, and as negative when the time is less than 10 seconds. At 1 hour after the initial treatment, a solution of capsaicin (0.3 μg) was added dropwise to the eye to evaluate whether the stimulation is or not, and examined the desensitizing activity of the compound. The stimulating and desensitizing activity of the drug were calculated as a value of ED50. The drug was dissolved in a mixture of 10% ethanol, 20% Tween and 80-70% physiological salt solution.

ICR male mice [3] = settings: subcutaneous; 55° C. water bath; time measured after 1, 3 and 6 hours
Protocol: Four to five weeks old ICR male mice (Japan SLC) were used in this test. The mouse was put into a retainer, the tail end was dipped into 55° C. water bath, and the time until the tail end rose to the surface was measured. The time was previously measured before the administration of the drug, and the mouse having the time of less than 2 seconds were selected and used in the test. Cut-off time was set to 10 seconds. The drug was administered subcutaneously, and the time was measured after 1, 3 and 6 hours to evaluate the effects of the drug. The drug was dissolved in a mixture of 10% ethanol, 20% Tween and 80-70% physiological salt solution.

ICR male mice [4] = experiment: Measurement of mouse bladder volume; format: in vivo; settings: for Bladder volume / Bladder volume (mL): sc, 3 hours after administration, urethane anesthesia, Mean ± S.E.; for bladder volume of the mouse (result in words): subcutaneous, mouse anesthetized with urethane
Protocol: Measurement of Mouse Bladder Volume
Five weeks old ICR male mice were used in this test. At 3 hours after the subcutaneous administration of the drug, the abdomen of mouse was cut open under urethane anesthesia (30 mg/mouse) to expose the bladder. Physiological salt solution was infused into the bladder at the rate of 0.05 mL/minutes to check excretion reflection. All of the urine was drained off, and the physiological salt solution was infused again, and then, the bladder volume of mouse was calculated by measuring the time to urination.

SMILES | survival rate of the cells [1] [%] | ED50 (ICR male mice [2]) [µg] | Minimum effective dose (ICR male mice [3]) [mg/kg] | Bladder volume (ICR male mice [4]; 3 mg/kg) [mL] | Bladder volume (mL) (ICR male mice [4]; 10 mg/kg, *p ≦ 0.05 vs. vehicle) | Bladder volume (mL) (ICR male mice [4]; 100 mg/kg, **p ≦ 0.01 vs. vehicle) | bladder volume of the mouse (result in words) (ICR male mice [4]) | Bladder volume (ICR male mice [4]; 0.03 mg/kg) [mL] | Bladder volume (mL) (ICR male mice [4]; 0.1 mg/kg, *p ≦ 0.05 vs. vehicle)
CCC(=O)c1cc(NC(=O)Nc2ccc(OC)c(OC)c2)ccc1OC(c1ccccc1)c1ccccc1 [Example 2, N-[(4-Benzhydryloxy)-3-propionylphenyl]-N′-(3,4-dimethoxyphenyl)urea] | 0 | 2.2 | 1 |  |  |  |  |  | 
COC(=O)c1cc(NC(=O)Nc2ccccc2)ccc1OC(c1ccccc1)c1ccccc1 [Example 22, Methyl 5-(anilinocarbonylamino)-2-benzhydryloxybenzoate] |  |  |  | 0.17 ± 0.03 | 0.28 ± 0.05* mL | 0.31 ± 0.06** mL | increased significantly |  | 
C=C(C)[C@]12C[C@@H](C)[C@@]34O[C@](Cc5ccccc5)(O[C@@H]1[C@@H]3C=C(COC(=O)Cc1ccc(O)c(OC)c1)C[C@]1(O)C(=O)C(C)=C[C@@H]41)O2 [Resiniferatoxin, resiniferatoxin, reference compound] |  |  |  |  |  |  | increased significantly | 0.24 ± 0.04 | 0.39 ± 0.04* mL
